Results published in the NIST ThermoML archive (doi:10.1016/j.jct.2012.11.014).
Numbers after ± are expanded uncertainties.

Columns and labels:
[1] = for speed of sound / viscosity / mass density: 101 kPa, Liquid; for speed of sound: Frequency=2 MHz, Linear variable-path acoustic interferometer; for viscosity: Oscillating disk viscometry; for mass density: Vibrating tube method; for Normal melting temperature: Crystal, visual observation
[2] = xn = mol fraction of the nth substance listed; details: 101 kPa, Liquid, x2 = 0; for speed of sound: Frequency=2 MHz, Linear variable-path acoustic interferometer; for viscosity: Oscillating disk viscometry; for mass density: Vibrating tube method

SMILES | speed of sound ([1]; 298.15 K) [m/s] | viscosity ([1]; 298.15 K) [mPa·s] | mass density ([1]; 298.15 K) [kg/m3] | speed of sound ([1]; 303.15 K) [m/s] | viscosity ([1]; 303.15 K) [mPa·s] | mass density ([1]; 303.15 K) [kg/m3] | speed of sound ([1]; 308.15 K) [m/s] | viscosity ([1]; 308.15 K) [mPa·s] | mass density ([1]; 308.15 K) [kg/m3] | speed of sound ([1]; 313.15 K) [m/s] | viscosity ([1]; 313.15 K) [mPa·s] | mass density ([1]; 313.15 K) [kg/m3] | speed of sound ([2]; 298.15 K) [m/s] | viscosity ([2]; 298.15 K) [mPa·s] | mass density ([2]; 298.15 K) [kg/m3] | speed of sound ([2]; 303.15 K) [m/s] | viscosity ([2]; 303.15 K) [mPa·s] | mass density ([2]; 303.15 K) [kg/m3] | speed of sound ([2]; 308.15 K) [m/s] | viscosity ([2]; 308.15 K) [mPa·s] | other results
C[S+](C)[O-] [dimethyl sulfoxide] | 1496 ± 3 | 1.99 ± 0.13 | 1095.37 ± 1 | 1472 ± 3 | 1.8 ± 0.11 | 1092.41 ± 1 | 1460 ± 3 | 1.65 ± 0.1 | 1086.06 ± 1 | 1442 ± 3 | 1.54 ± 0.1 | 1081.43 ± 1 | – | – | – | – | – | – | – | – | –
CC(=O)[O-].C[NH+](C)C [trimethylammonium acetate] | 1544 ± 3 | 2.76 ± 0.18 | 1053.85 ± 1 | 1514 ± 3 | 2.37 ± 0.16 | 1049.87 ± 1 | 1508 ± 3 | 2.06 ± 0.14 | 1045.81 ± 1 | 1490 ± 3 | 1.83 ± 0.12 | 1041.7 ± 1 | – | – | – | – | – | – | – | – | –
C[NH+](C)C.O=P([O-])(O)O [trimethylammonium dihydrogen phosphate] | 1672 ± 3 | 7.64 ± 0.52 | 1353.61 ± 1.1 | 1660 ± 3 | 6.46 ± 0.44 | 1350.62 ± 1.1 | 1661 ± 3 | 5.61 ± 0.37 | 1347.59 ± 1.1 | 1664 ± 3 | 5.07 ± 0.32 | 1344.52 ± 1.1 | – | – | – | – | – | – | – | – | Normal melting temperature [1]: 116.00 ± 1 °C
C[NH+](C)C.O=S(=O)([O-])O [trimethylammonium hydrogen sulfate] | 1564 ± 3 | 5.1 ± 0.33 | 1467.58 ± 1.2 | 1560 ± 3 | 4.48 ± 0.29 | 1463.57 ± 1.2 | 1556 ± 3 | 3.94 ± 0.27 | 1463.5 ± 1.2 | 1552 ± 3 | 3.16 ± 0.25 | 1455.63 ± 1.2 | – | – | – | – | – | – | – | – | Normal melting temperature [1]: 129.00 ± 1 °C

The next lines start with results.

speed of sound ([1]; 298.15 K) [m/s] | viscosity ([1]; 298.15 K) [mPa·s] | mass density ([1]; 298.15 K) [kg/m3] | speed of sound ([1]; 303.15 K) [m/s] | viscosity ([1]; 303.15 K) [mPa·s] | mass density ([1]; 303.15 K) [kg/m3] | speed of sound ([1]; 308.15 K) [m/s] | viscosity ([1]; 308.15 K) [mPa·s] | mass density ([1]; 308.15 K) [kg/m3] | speed of sound ([1]; 313.15 K) [m/s] | viscosity ([1]; 313.15 K) [mPa·s] | mass density ([1]; 313.15 K) [kg/m3] | speed of sound ([2]; 298.15 K) [m/s] | viscosity ([2]; 298.15 K) [mPa·s] | mass density ([2]; 298.15 K) [kg/m3] | speed of sound ([2]; 303.15 K) [m/s] | viscosity ([2]; 303.15 K) [mPa·s] | mass density ([2]; 303.15 K) [kg/m3] | speed of sound ([2]; 308.15 K) [m/s] | viscosity ([2]; 308.15 K) [mPa·s] | SMILES | other results
– | – | – | – | – | – | – | – | – | – | – | – | 1496 ± 3 | 1.99 ± 0.13 | 1095.37 ± 1 | 1472 ± 3 | 1.8 ± 0.11 | 1092.41 ± 1 | 1460 ± 3 | 1.65 ± 0.1 | C[S+](C)[O-] [dimethyl sulfoxide] + CC(=O)[O-].C[NH+](C)C | mass density ([2]; 308.15 K): 1086.06 ± 1 kg/m3; speed of sound ([2]; 313.15 K): 1442 ± 3 m/s; viscosity ([2]; 313.15 K): 1.54 ± 0.1 mPa·s; mass density ([2]; 313.15 K): 1081.43 ± 1 kg/m3
– | – | – | – | – | – | – | – | – | – | – | – | 1496 ± 3 | 1.99 ± 0.13 | 1095.37 ± 1 | 1472 ± 3 | 1.8 ± 0.11 | 1092.41 ± 1 | 1460 ± 3 | 1.65 ± 0.1 | C[S+](C)[O-] [dimethyl sulfoxide] + C[NH+](C)C.O=P([O-])(O)O | mass density ([2]; 308.15 K): 1086.06 ± 1 kg/m3; speed of sound ([2]; 313.15 K): 1442 ± 3 m/s; viscosity ([2]; 313.15 K): 1.54 ± 0.1 mPa·s; mass density ([2]; 313.15 K): 1081.43 ± 1 kg/m3
– | – | – | – | – | – | – | – | – | – | – | – | 1496 ± 3 | 1.99 ± 0.13 | 1095.37 ± 1 | 1472 ± 3 | 1.8 ± 0.11 | 1092.41 ± 1 | 1460 ± 3 | 1.65 ± 0.1 | C[S+](C)[O-] [dimethyl sulfoxide] + C[NH+](C)C.O=S(=O)([O-])O | mass density ([2]; 308.15 K): 1086.06 ± 1 kg/m3; speed of sound ([2]; 313.15 K): 1442 ± 3 m/s; viscosity ([2]; 313.15 K): 1.54 ± 0.1 mPa·s; mass density ([2]; 313.15 K): 1081.43 ± 1 kg/m3
